Legend:
[1] = In vitro release of L-006235 from SP and SP-DOTAP hydrogel (dialysis, HPLC); assay type: physicochemical; conditions: from hydrogel in PBS at 37° C.; in 7 days
Experimental: SP-DOTAP gel was assayed for its ability to retain the encapsulated Cathepsin-K inhibitor, L-006235, loaded at 10% (w/w). In vitro release of L-006235 from SP-only hydrogel and from SP-DOTAP hydrogel was evaluated in PBS at 37° C. Drug-loaded hydrogels (200 μL, 10 mg drug/mL) further suspended in PBS (800 μl) were placed in dialysis tubing (8-10 kD molecular weight cut-off, Spectrum Labs). The dialysis bags filled with hydrogel in the suspension medium were placed in a 40 mL sink medium (PBS), and incubated at 37° C. with a shaking speed of 150 rpm. At each time point, an aliquot (1 ml) from the sink medium was removed and replenished with the same volume of fresh PBS to ensure constant sink conditions. Aliquots were lyophilized and dissolved in 250 μL methanol, followed by high performance liquid chromatography (HPLC) analysis of the drug amount.

[2] = Log P of GRAS amphiphiles; assay type: physicochemical; conditions: GRAS amphiphile alone
Text: (log P is the partition coefficient of a molecule between an aqueous and lipophilic phases, usually octanol and water; commonly used as a measure of lipophilicity of a compound.)

## CN1CCN(c2nc(-c3ccc(C(=O)NC4(C(=O)NCC#N)CCCCC4)cc3)cs2)CC1 [L-006235]
[1]
  cumulative release of L-006235: less than 10%

## CCCCCCCCCCCCCCCC(=O)OC[C@H](O)[C@H]1OC(=O)C(O)=C1O [AP, ascorbyl palmitate]
[2]; aqueous and lipophilic phases, usually octanol and water, Table 1
  logP: 4.62

## triglycerol monostearate [TG18]
[2]; Table 1
  Log P: 3.899
[2]; Table 2
  Log P: 3.899

## sucrose palmitate [SP]
[2]; Table 1
  Log P: 0.64
[2]; Table 2
  Log P: 0.64

## sucrose stearate [SS]
[2]; Table 1
  Log P: 1.416

From US10568840B2, “Self assembled gels for controlled delivery of encapsulated agents to cartilage” (The Brigham and Women's Hospital, Inc., priority 2016, dated 2020)
